Blank lines part the entries; values can stand above or below the molecule they belong to.
Key:
5-lipoxygenase = biological target: T1, 5-lipoxygenase (Rattus norvegicus, UniProt P12527); assay: Inhibition of 5-lipoxygenase, in vitro (5-HETE synthesis, RBL-1 100,000 x g supernatant); assay type: biochemical; settings: for activation at 100 µM / activation at 10 µM: stimulation, read-out: 5-Lipoxygenase, Stimulated %
T1 construct: The 100,000 x g supernatant fraction of Rat Basophilic Leukemia Cell Homogenate (RBL-1); endogenous in cells; host or cells: RBL-1 (rat basophilic leukemia) cells, 100,000 x g supernatant of homogenate
T1 sequence (P12527 1-673): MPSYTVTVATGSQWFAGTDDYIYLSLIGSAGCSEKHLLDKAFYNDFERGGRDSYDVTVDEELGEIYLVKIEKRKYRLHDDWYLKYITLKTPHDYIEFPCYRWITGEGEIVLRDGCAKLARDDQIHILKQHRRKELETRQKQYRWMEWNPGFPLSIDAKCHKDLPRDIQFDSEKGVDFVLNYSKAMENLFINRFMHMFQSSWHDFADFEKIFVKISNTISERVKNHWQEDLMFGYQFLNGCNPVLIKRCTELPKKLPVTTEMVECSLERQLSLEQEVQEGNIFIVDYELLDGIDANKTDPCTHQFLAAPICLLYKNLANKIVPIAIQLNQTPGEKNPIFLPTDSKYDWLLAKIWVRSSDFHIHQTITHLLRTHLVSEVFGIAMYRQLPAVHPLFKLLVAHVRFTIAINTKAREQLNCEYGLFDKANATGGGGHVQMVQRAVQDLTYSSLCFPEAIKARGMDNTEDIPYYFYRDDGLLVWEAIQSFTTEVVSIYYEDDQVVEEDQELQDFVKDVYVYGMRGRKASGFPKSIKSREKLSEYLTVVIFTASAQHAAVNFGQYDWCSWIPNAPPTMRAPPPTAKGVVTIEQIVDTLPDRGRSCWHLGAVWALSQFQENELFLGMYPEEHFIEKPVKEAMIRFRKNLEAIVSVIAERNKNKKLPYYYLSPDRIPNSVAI
Protocol: The compounds of the invention are evaluated with respect to 5-lipoxygenaseinhibition according to the following assay procedure.
Inhibition of 5-lipoxygenase, in vitro: anti-inflammatory, anti-allergy activities.
The 100,000 x g supernatant fraction of Rat Basophilic Leukemia Cell Homogenate (RBL-1) serves as a 5-lipoxygenase enzyme source. The enzyme is incubated with [1-^14 C)-arachidonic acid and Ca++ in the presence and absence of test compound. The product of 5-lipoxygenase, 5-hydroxyeicosatetraenoic acid (5-HETE), is separated by thin-layer chromatography an measured by radioactivity. A compound inhibiting 5-HETE synthesis by 30% or more is considered active at that concentration.
For comparison the compound of Formula XX, a known 5-lipoxygenase inhibitor described in U.S. Pat. No. 4,755,524 was used. [drawing 13]

human neutrophils = assay: Human neutrophil superoxide generation (FMLP-stimulated, cytochrome C reduction); assay type: cell-based; settings: for IC50: read-out: FMLP Induced Superoxide Generation, Inhibition IC50
Protocol: The compounds of the invention are evaluated with respect to superoxide modulating activity according to the following assay procedure:
Human neutrophil superoxide generation: Superoxide generation by formyl-methionyl-leucyl-phenylalanine (FMLP)-stimulated neutrophils was quantitated by the reduction of cytochrome C (Badwey, J. A., Curnutte, J. T. and Karnovsky, M. L., cis-Polyunsaturated fatty acids induce high levels of superoxide production by human neutrophils. J. Biol. Chem. 256: 12640-12643, 1981.) To 5 million neutrophils in 2.85 ml of Krebs-Ringer phosphate buffer, pH 7.2, 50 ul of inhibitor (in 10% DMSO/buffer), and 50 ul ferricytochrome C (5 mM, stock) were added and preincubated for 3 minutes at 37° C. Absorption measurements at 550 nm were recorded at start of preincubation. Fifty ul FMLP (6 uM, stock) was added to initiate reaction. A plateau was reached within 3 minutes and this reading minus the initial reading (before addition of FMLP) was used to calculate nanomoles of superoxide generated based on a molar extinction coefficient of 2.1×10^4 cm^-1 mole^-1.
Isolation of human neutrophils: Human neutrophils were isolated from freshly drawn blood of healthy donors. Two ml of 5% dextran (MW 200,000-300,000) in saline was added to 10 ml aliquots of blood, mixed and placed upright for 45 min. at 37° C. Approx. 8-10 ml of the plasma-white cell suspension from the dextran sedimentation was layered on 3 ml of Ficol-paque in a 15 ml tube and centrifuged at 400 g for 30 min. The supernate, containing plasma and platelets, was discarded by aspiration, and the pellet, containing predominantly neutrophils, was resuspended in 1 ml saline. The suspension was transferred to a clean tube, and pooled with other aliquots of blood treated similarly. The pooled suspension was centrifuged at 350 g for 5 min. and supernate discarded. The pellet was resuspended in 5 ml of 0.05% NaCl with a plastic Pasteur pipette for 25 seconds to lyse contaminating red cells, then 5 ml of 1.75% NaCl added to regain isotonicity. The red cell lysing procedure was repeated, the cells suspended in appropriate buffer (depending on assay) and counted.

[1] = biological target: T2, Sheep Seminal Vesicle Microsome Cyclooxygenase (Ovis aries, UniProt P05979); assay: Inhibition of Sheep Seminal Vesicle Microsome Cyclooxygenase; assay type: biochemical
T2 construct: Lyophilized ovine microsome (approx. 1 mg) suspended in 2.9 ml Tris-HCl buffer, pH 8.2, containing 0.7 mM phenol were used as source; from tissue; host or cells: sheep seminal vesicle microsomes (lyophilized)
T2 sequence (P05979 25-600): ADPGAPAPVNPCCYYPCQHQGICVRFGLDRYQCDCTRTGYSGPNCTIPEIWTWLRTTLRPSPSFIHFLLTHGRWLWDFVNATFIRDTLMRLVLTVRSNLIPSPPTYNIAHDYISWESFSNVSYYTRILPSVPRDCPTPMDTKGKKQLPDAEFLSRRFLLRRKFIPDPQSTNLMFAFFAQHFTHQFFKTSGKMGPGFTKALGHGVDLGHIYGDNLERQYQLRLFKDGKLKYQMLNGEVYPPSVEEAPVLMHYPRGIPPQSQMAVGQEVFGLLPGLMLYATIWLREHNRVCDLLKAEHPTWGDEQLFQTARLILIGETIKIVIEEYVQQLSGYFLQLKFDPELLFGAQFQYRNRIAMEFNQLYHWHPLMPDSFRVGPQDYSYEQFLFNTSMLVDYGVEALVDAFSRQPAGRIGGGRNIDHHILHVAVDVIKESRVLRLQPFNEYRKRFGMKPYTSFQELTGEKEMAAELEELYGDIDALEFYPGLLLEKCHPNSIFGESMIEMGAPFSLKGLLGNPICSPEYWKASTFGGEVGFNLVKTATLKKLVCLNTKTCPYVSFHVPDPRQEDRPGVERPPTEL
Protocol: The compounds of the present invention evaluated with respect to cyclooxygenase inhibition according to the following assay procedure. Inhibition of Sheep Seminal Vesicle Microsome Cyclooxygenase The assay was based on oxygen consumption during conversion of arachidonic acid to prostaglandin G2 catalyzed by cyclooxygenase Biochem. 11:3276-3285 (1972). Lyophilized ovine microsome (approx. 1 mg) suspended in 2.9 ml Tris-HCl buffer, pH 8.2, containing 0.7 mM phenol were used as source of arachidonate cyclooxygenase. The inhibitor, 50 μl in DMSO, was added and the mixture preincubated for 5 minutes at 37° C. Fifty μl of arachidonic acid (final conc. 50 μM) was added to start the reaction. The slopes of the initial rates of oxygen uptake, in the presence and absence of inhibitor, were compared to determine reaction inhibition. Percent inhibition was computed using the following formula: [formula]

[2] = Homo sapiens, Neutrophil, % above control, read-out: FMLP Induced Superoxide Generation, Stimulation, % > control

inhibition at 100 µM (5-lipoxygenase; at 10^-4 M, inhibition, read-out: 5-Lipoxygenase, Inhibited %): 21.3%
inhibition at 10 µM (5-lipoxygenase; at 10^-5 M, inhibition, read-out: 5-Lipoxygenase, Inhibited %): 14.9%
IC50 (human neutrophils; Homo sapiens, Neutrophil): 2.8 µM
IC50 [1]: 64 µM
SMILES: O=C(O)CS[C@@H]1CCCC[C@H]1Sc1cccc(-c2ccccc2)c1 (relative stereo) [Example 15]

IC50 (human neutrophils; Homo sapiens, Neutrophil): 11 µM
SMILES: C[C@H](Sc1cc(C(C)(C)C)c(O)c(C(C)(C)C)c1)[C@@H](C)OCC(=O)O (relative stereo) [Formula XX, reference compound]
5-lipoxygenase inhibition (statement in words) (5-lipoxygenase): inhibited both superoxide generation and 5-lipoxygenase
superoxide generation (statement in words) (human neutrophils): inhibited both superoxide generation and 5-lipoxygenase

IC50 (5-lipoxygenase): > 100 µM
IC50 (human neutrophils; Homo sapiens, Neutrophil): 3.4 µM
SMILES: CC(C)(C)c1cc(S[C@@H]2CCCC[C@H]2OCC(=O)O)cc(C(C)(C)C)c1 (relative stereo) [Example 17]

5-lipoxygenase inhibition (statement in words) (5-lipoxygenase): inhibited 5-lipoxygenase
IC50 (5-lipoxygenase): 100 µM
SMILES: CN(CCc1ccccn1)C(=O)CS[C@@H]1CCCC[C@H]1Sc1cc(C(C)(C)C)cc(C(C)(C)C)c1 (relative stereo) [Example 16]
superoxide generation (statement in words) (human neutrophils): stimulated superoxide generation
activation at 10 µM (human neutrophils; [2]): 33%
activation at 25 µM (human neutrophils; Homo sapiens, Neutrophil, 25 μM, % above control, read-out: FMLP Induced Superoxide Generation, Stimulation, % > control): 83%
activation at 50 µM (human neutrophils; Homo sapiens, Neutrophil, 50 μM, % above control, read-out: FMLP Induced Superoxide Generation, Stimulation, % > control): 100%

Continued, molecule first:

SMILES: CC(C)(C)c1cc(S[C@@H]2CCCC[C@H]2SCC(=O)O)cc(C(C)(C)C)c1 (relative stereo) [Example 5, trans-[[2-[[3,5-bis(1,1-dimethylethyl)phenyl]thio]cyclohexyl]thio]acetic acid]
IC50 (5-lipoxygenase): 100 µM
IC50 (human neutrophils; Homo sapiens, Neutrophil): 1.1 µM

SMILES: CC(C)(C)c1cccc(S[C@@H]2CCCC[C@H]2SCC(=O)O)c1 (relative stereo) [Example 11]
activation at 100 µM (5-lipoxygenase; at 10^-4 M): 2.5%
activation at 10 µM (5-lipoxygenase; at 10^-5 M): 3.2%
IC50 (human neutrophils; Homo sapiens, Neutrophil): 4.8 µM
IC50 [1]: 2.9 µM

SMILES: O=C(O)CS[C@@H]1CCCC[C@H]1Sc1ccccc1 (relative stereo) [Example 7]
5-lipoxygenase inhibition (statement in words) (5-lipoxygenase): did not inhibit either 5-lipoxygenase or cyclooxygenase
activation at 100 µM (5-lipoxygenase; at 10^-4 M): 45%
activation at 10 µM (5-lipoxygenase; at 10^-5 M): 27%
superoxide generation (statement in words) (human neutrophils): did inhibit superoxide generation
IC50 (human neutrophils; Homo sapiens, Neutrophil): 50 µM
cyclooxygenase inhibition (statement in words) [1]: did not inhibit either 5-lipoxygenase or cyclooxygenase
Cyclooxygenase Inhibition (in words) ([1]; at 100 μM): Inactive

SMILES: COC(=O)CS[C@@H]1CCCC[C@H]1Sc1cc(C(C)(C)C)cc(C(C)(C)C)c1 (relative stereo) [Example 4]
activation at 1 µM (human neutrophils; Homo sapiens, Neutrophil, 1 μM, % above control, read-out: FMLP Induced Superoxide Generation, Stimulation, % > control): 67%
activation at 10 µM (human neutrophils; [2]): 133%
activation at 100 µM (human neutrophils; Homo sapiens, Neutrophil, 100 μM, % above control, read-out: FMLP Induced Superoxide Generation, Stimulation, % > control): 167%

From patent US5272178A, “Compounds of cyclic phenolic thioethers which are useful in stimulating and inhibiting superoxide generation” (G. D. Searle & Co., priority 1993, dated 1993)
